In PMC5973626, “A secreted Heat shock protein 90 of Trichomonas vaginalis” (PLoS Neglected Tropical Diseases, 2018):

Columns and labels:
Format in all cases: binding
[1] = target: T1, TV560 (cytosolic Hsp90, TVAG_153560) (Trichomonas vaginalis, UniProt A2EPR1); assay: intrinsic tryptophan fluorescence quenching; also ATPase inhibition (IC50 […])
T1 construct: full-length, 6x-His tag fusion expressed in E. coli (721 amino acids)

[2] = target: T2, TV910 (Grp94 ortholog, TVAG_378910) (Trichomonas vaginalis, UniProt A2DB82); assay: as above
T2 construct: 6x-His tag fusion expressed in E. coli

[3] = target: T2, TV910 (Grp94 ortholog, TVAG_378910); assay: intrinsic tryptophan fluorescence quenching; also ATPase kinetics (KM […])
[4] = target: T1, TV560 (cytosolic Hsp90, TVAG_153560); assay: as above

T2 sequence (A2DB82 entry or part of it): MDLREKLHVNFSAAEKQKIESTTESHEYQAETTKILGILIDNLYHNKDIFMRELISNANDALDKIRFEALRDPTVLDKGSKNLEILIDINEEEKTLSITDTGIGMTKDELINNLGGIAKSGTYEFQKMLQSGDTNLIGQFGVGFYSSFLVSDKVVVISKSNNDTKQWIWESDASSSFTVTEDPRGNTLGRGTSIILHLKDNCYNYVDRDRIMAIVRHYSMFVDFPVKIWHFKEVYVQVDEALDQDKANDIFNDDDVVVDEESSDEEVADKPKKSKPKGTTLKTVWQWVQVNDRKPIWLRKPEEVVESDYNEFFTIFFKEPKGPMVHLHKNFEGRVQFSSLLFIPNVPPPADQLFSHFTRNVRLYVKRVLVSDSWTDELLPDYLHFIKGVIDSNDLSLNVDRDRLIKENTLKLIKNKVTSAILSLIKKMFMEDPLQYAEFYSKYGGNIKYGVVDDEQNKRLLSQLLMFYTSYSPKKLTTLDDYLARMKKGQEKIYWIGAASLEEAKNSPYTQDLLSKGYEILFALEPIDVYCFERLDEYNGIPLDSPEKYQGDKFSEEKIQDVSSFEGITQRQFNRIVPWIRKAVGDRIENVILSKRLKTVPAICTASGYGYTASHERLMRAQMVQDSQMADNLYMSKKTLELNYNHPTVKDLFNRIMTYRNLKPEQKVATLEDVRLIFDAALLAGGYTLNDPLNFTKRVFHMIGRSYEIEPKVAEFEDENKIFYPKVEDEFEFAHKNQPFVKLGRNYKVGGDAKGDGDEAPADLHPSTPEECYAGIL
T1 sequence (A2EPR1 entry or part of it): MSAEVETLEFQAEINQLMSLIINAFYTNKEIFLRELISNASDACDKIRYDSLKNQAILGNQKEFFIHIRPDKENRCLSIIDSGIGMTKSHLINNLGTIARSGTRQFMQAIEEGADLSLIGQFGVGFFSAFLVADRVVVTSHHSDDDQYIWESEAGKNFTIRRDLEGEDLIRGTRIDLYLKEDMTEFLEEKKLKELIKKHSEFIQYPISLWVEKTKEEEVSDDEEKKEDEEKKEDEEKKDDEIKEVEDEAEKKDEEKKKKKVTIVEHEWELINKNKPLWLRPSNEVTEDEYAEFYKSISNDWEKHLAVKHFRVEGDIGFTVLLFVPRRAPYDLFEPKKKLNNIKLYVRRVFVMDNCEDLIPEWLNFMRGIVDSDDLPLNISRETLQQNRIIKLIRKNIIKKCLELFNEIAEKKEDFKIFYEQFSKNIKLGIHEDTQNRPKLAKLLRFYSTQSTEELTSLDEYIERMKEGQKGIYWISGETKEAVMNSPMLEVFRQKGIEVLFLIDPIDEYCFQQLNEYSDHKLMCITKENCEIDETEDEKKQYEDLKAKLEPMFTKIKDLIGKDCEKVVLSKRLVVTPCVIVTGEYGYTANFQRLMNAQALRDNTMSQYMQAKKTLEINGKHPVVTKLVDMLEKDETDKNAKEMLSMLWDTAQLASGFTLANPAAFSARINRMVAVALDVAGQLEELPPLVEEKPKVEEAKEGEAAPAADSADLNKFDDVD

SMILES | Kd [1] [µM] | Kd [2] [µM] | Kd [3] [µM] | Kd [4] [µM]
C=CCNC1=C2C[C@@H](C)C[C@H](OC)[C@H](O)[C@@H](C)/C=C(\C)[C@H](OC(N)=O)[C@@H](OC)/C=C\C=C(/C)C(=O)NC(=CC1=O)C2=O [17-AAG] | 11.5 | 15.7 |  | 
Nc1ncnc2c1ncn2[C@@H]1O[C@H](COP(=O)(O)OP(=O)(O)OP(=O)(O)O)[C@@H](O)[C@H]1O [ATP] |  |  | 722 | 538
